Earlier results in PMC6738313 (The Oncologist, 2019).
Values belong to the compound of their own block, whether it stands above or below them.

Columns and labels:
CYP3A4/5 = details: clinical data
[1] = tested on: patients with metastatic renal cell carcinoma
[2] = tested on: first-line poor- or intermediate-risk patients with mRCC; details: CABOSUN

Compound: C[C@@H](Oc1cc(-c2cnn(C3CCNCC3)c2)cnc1N)c1c(Cl)ccc(F)c1Cl [crizotinib, Crizotinib]
CYP3A4/5 inhibition (classification) (CYP3A4/5): moderate time‐dependent CYP3A4/5 inhibitor

Metabolic pathway (CYP3A4/5): primarily metabolized by CYP3A4/5
Compound: CNC(=O)c1ccccc1Sc1ccc2c(/C=C/c3ccccn3)n[nH]c2c1 [Axitinib]
Progression-free survival (PFS) ([1]; axitinib single agent, first-line therapy, 95% CI 7.2–12.1): 10.1 months
Objective response rate (ORR) ([1]; single-agent axitinib, first-line mRCC, phase III trial versus sorafenib): 32%

Compound: COc1cc2nccc(Oc3ccc(NC(=O)C4(C(=O)Nc5ccc(F)cc5)CC4)cc3)c2cc1OC [cabozantinib]
Estimated progression-free survival (PFS) ([2]; 95% CI 6.2–8.8): 8.2 months
Objective response rate (ORR) ([2]; first-line poor- or intermediate-risk patients with mRCC): 46%
